Data published in paper PMC5308254, “Bioactivity of Natural and Engineered Antimicrobial Peptides from Venom of the Scorpions Urodacus yaschenkoi and U. manicatus” (Toxins, 2017).
No end group written: not given here.

Tests used:
[1] = test system: Micrococcus luteus (DSM20030); assay: Growth inhibition assay (MIC), M. luteus; assay type: cell-based; conditions: 384-well plates, LB, 30 °C, peptide 0.015–250 µM; MIC = concentration at which growth was totally inhibited; average of n ≥ 3; dash = no inhibition
Method: (§1) The minimal inhibitory concentration (MIC) of each AMPs was determined against the Gram-positive bacteria Listeria monocytogenes (DSM20600), L. grayi (DSM20601), L. fleischmannii (DSM24998), Staphylococcus aureus (DSM2569) and Micrococcus luteus (DSM20030), and the Gram-negative species Escherichia coli (D31) and Pseudomonas aeruginosa (DSM50071). The scorpion peptides were prepared at concentrations of 0.015–250 μM. The assays were carried out in 384-well plates (Greiner Bio One, Frickenhausen, Germany) using Brain Heart Infusion Broth (BHIB) medium for Listeria spp., Tryptic Soy Broth (TSB) for S. aureus, and lysogeny broth (LB) for the others. The bacteria were cultivated overnight at either 37 °C (Listeria spp., S. aureus, E. coli and P. aeruginosa) or 30 °C (M. luteus) and subcultured in fresh media before the growth inhibition assays. Growth inhibition was measured as previously described.

Escherichia coli (D31) = assay: Growth inhibition assay (MIC), E. coli; assay type: cell-based; conditions: 384-well plates, LB, 37 °C, peptide 0.015–250 µM; growth totally inhibited; average of n ≥ 3; dash = no inhibition
Method: as §1

[2] = test system: Staphylococcus aureus (DSM2569); assay: Growth inhibition assay (MIC), S. aureus; assay type: cell-based; conditions: 384-well plates, TSB, 37 °C, peptide 0.015–250 µM; growth totally inhibited; average of n ≥ 3; dash = no inhibition
Method: as §1

L. grayi (DSM20601) = assay: Growth inhibition assay (MIC), L. grayi; assay type: cell-based, Listeria grayi; conditions: 384-well plates, BHIB, 37 °C, peptide 0.015–250 µM; growth totally inhibited; average of n ≥ 3; dash = no inhibition
Method: as §1

[3] = test system: L. fleischmannii (DSM24998); assay: Growth inhibition assay (MIC), L. fleischmannii; assay type: cell-based, Listeria fleischmannii; conditions: 384-well plates, BHIB, 37 °C, peptide 0.015–250 µM; growth totally inhibited; average of n ≥ 3; dash = no inhibition
Method: as §1

[4] = test system: Listeria monocytogenes (DSM20600); assay: Growth inhibition assay (MIC), L. monocytogenes; assay type: cell-based; conditions: 384-well plates, BHIB, 37 °C, peptide 0.015–250 µM; growth totally inhibited; average of n ≥ 3; dash = no inhibition
Method: as §1

pig erythrocytes = assay: Hemolytic activity on pig erythrocytes; assay type: cell-based; conditions: 1 h at 37 °C; for HC10 (hemolytic concentration) / HC90 (hemolytic concentration) / HC50 (hemolytic concentration): 6.25–100 µM, absorbance 570 nm, non-linear fit; for HC10 (hemolytic concentration) / HC90 (hemolytic concentration): n ≥ 3; for HC50 (hemolytic concentration): n ≥ 3, n.c. (100) = not convergent at 100 µM; for percentage of hemolysis: 100 µM peptide (highest tested), 10% Triton X-100 = 100% hemolysis
Method: The hemolytic activity of each AMP was determined using pig erythrocytes. Serial dilutions (6.25–100 µM) of each AMP were prepared, and after incubation for 1 h at 37 °C the cells were centrifuged and the absorbance of the supernatant was measured at 570 nm using an Eon Microplate Spectrophotometer (BioTek Instruments, Winooski, VT, USA). Three independent experiments were carried out for each concentration in triplicate. PBS and 10% Triton X–100 were used as negative and positive controls, respectively. The percentage hemolysis was calculated using the formula 100((Apeptide–APBS)/(Atriton–APBS)). The AMP concentration causing 50% hemolysis (HC50) of the pig erythrocytes was determined by non-linear regression with the data fitted to the logistical sigmoidal equation, using GraphPad Prism v5.0 (GraphPad Software, San Diego, CA, USA) (Figure S2).

[5] = Cytotoxicity, alamarBlue, BHK-21 cells; assay type: cell-based, hamster; conditions: hamster, 2 h at 37 °C, 0.1–100 µM, alamarBlue fluorescence, non-linear fit, concentration reducing viability by 50%, n ≥ 3, read-out: EC50 (effective cytotoxic concentration)
Method: (§2) Cytotoxicity was evaluated using the baby hamster kidney cell line (BHK-21) included in F2H®-Kit Basic (Chromotek, Planegg-Martinsried, Germany). The BHK-21 cells were grown in 25-cm^2 cell culture flasks (Greiner Bio One, Frickenhausen, Germany) containing Dulbecco’s Modified Eagle’s Medium (DMEM) supplemented with 4.5 g/L glucose, 110 mg/L sodium pyruvate and L-glutamine, and 10% fetal bovine serum (FBS), and were maintained in an NU-5810 incubator (ibs tecnomara, Fernwald, Germany) at 37 °C with a 5% CO2 atmosphere. The cells were subcultured at ~90% confluence by detaching with 0.25% trypsin and 0.03% EDTA (Sigma-Aldrich, St Louis, MO, USA). The AMPs were dissolved in water and diluted to final concentrations of 0.1, 1, 10 and 100 µM in DMEM.
(§3) BHK-21 cells were prepared and tested as previously described. Confluent cells were detached, counted and seeded at a concentration of 8.5 × 10^4 cell/mL in a 96-well culture plate (Greiner Bio One-Cell Star) 48 h before each experiment. The cells were rinsed with 100 µL PBS before adding 100 µL of the AMP solution and incubating for 2 h at 37 °C. The AMP solution was then removed and the cells were rinsed again with PBS before staining with 10% v/v alamarBlue™ Dye (Thermo Fisher Scientific, Schwerte, Germany) in DMEM for 1 h. The fluorescence of the metabolized alamarBlue™ Dye was measured in an Eon microplate reader using excitation and emission filters of 528 and 590 nm, respectively. DMEM and cells exposed to DMEM without AMPs were included as a blank reference and negative control, respectively. Four independent experiments were carried out for each AMP concentration in triplicate. To assess the percentage of viable cells compared to the control, the data were analyzed with GraphPad Prism v5.0 software using non-linear regression to fit the curve (Figure S2). The EC50 was reported as the AMP concentration that reduces cell viability by 50%.

[6] = test system: baby hamster kidney cells (BHK21); assay: Cytotoxicity, alamarBlue, BHK-21 cells; assay type: cell-based; conditions: 2 h at 37 °C, 0.1–100 µM, alamarBlue fluorescence, non-linear fit, n ≥ 3
Method: as §2, §3

[7] = test system: Pseudomonas aeruginosa (DSM50071); assay: Growth inhibition assay (MIC), P. aeruginosa; assay type: cell-based; conditions: LB, 37 °C, highest concentration tested 250 µM
Method: as §1

seven different bacteria = assay: Antibacterial activity against all seven bacteria tested (summary); assay type: cell-based; conditions: approximate overall value
Method: as §1

Substance	MIC M. luteus [1] [µM]	MIC E. coli (Escherichia coli (D31)) [µM]	MIC S. aureus [2] [µM]	MIC L. grayi (L. grayi (DSM20601)) [µM]	MIC L. fleischmannii [3] [µM]	MIC L. monocytogenes [4] [µM]	HC10 (hemolytic concentration) (pig erythrocytes) [µM]	HC90 (hemolytic concentration) (pig erythrocytes)	HC50 (hemolytic concentration) (pig erythrocytes) [µM]	CC50 at 2 h [5] [µM]	EC10 (effective cytotoxic concentration) [6] [µM]	EC90 (effective cytotoxic concentration) [6] [µM]	MIC P. aeruginosa (concentration inhibiting growth) [7] [µM]	MIC against all seven bacteria tested (seven different bacteria)	percentage of hemolysis (pig erythrocytes)
FLSTIWNGIKGLL-NH2 [Uy192]	15	15	15	15	4	8	35.85	675.22 µM	155.6	52	1.92	155.90			
GFWGKLWEGVKNAI-NH2 [UyCT1]	1	4		4	4	4	31.5	644.46 µM	142.5	17.4	0.65	52.12	60	~ 4 µM	
GFWGKLWEGVKNAIKKK-NH2 [D11]	0.25	4		1	1	2	39.76	30,984.53 µM	1110	17.8	0.66	53.43	30	~ 1 µM	~ 10%
GFWGKLWEGVKSAI-NH2 [Um3]	2	15	15	4	4	8	70.48	246.84 µM	126.2	63.7	2.359	191.1			
GFWKGKLWKEGVKNAIK [D12, engineered AMP based on UyCT1 but with distributed lysine residues]														totally inactive	
IWSAIWSGIKGLL-NH2 [UyCT5]	4	15	8	8	8	4	2.39	177.49 µM	20.59	24.6	0.91	73.65			70%
